Earlier results as cited in patent publication US10272130B1, “Oral anaerobic glutathione supplement in liposome suspension” (priority 2017, dated 2019).

Columns and labels:
[1] = in vivo

## CC(=O)N[C@@H](CS)C(=O)O [NAC, N-acetylcysteine]
[1]
  half-life: approximately 5.6 hours
  renally excreted by the body: 30%
In vivo
  pregnancy risk category: category B
Orally administered or inhaled
  adverse effects associated with administration: drowsiness, stomatitis, clamminess, rhinorrhea, and hemoptysis
